Reference: patent US9635854B2, “Controlling red rice with mesotrione” (FMC Corporation, priority 2014, dated 2017)
Read-outs that look alike come from different tables or passages of the source.

Columns and labels:
red rice (Oryza sativa) [1] = experiment: Pre-emergent evaluation on flooded rice, red rice control; type: in vivo; conditions: PRE, direct-seeded flooded rice
Method: Rice (Oryza sativa) crop varieties (‘Cybonee’, ‘Jupiter’, and ‘Taggart’) and red rice (Oryza sativa) were planted in 6 inch plastic pots containing sterile top soil. Eight to ten seeds of each species were seeded at 12 o'clock, 3 o'clock, 6 o'clock or 9 o'clock around the pot. The pots were watered after planting. […] The test solutions were applied using a compressed air track spray chamber at 30 gallons per acre using a Teejet 8001E nozzle at 40 PSI, three replicates per test rate. After treatment, the pots were watered lightly and transferred to trays in a greenhouse. After the plants were two inches in height the trays were flooded with water and maintained as such for 14 days. The trays were emptied of water and the pots were maintained by regular watering for 4 more days. At 14, 21 and 28 days after treatment (DAT) the plants were evaluated versus untreated control pots containing the same rice and weeds using a scale of 0% (no control) to 100% (complete plant death).

[2] = tested on: Rice (Oryza sativa) 'Cybonee'; conditions: PRE, direct-seeded dryland rice
Description: (§1) Rice (Oryza sativa) was planted in 6″ by 10″ fiber flats filled with sterile top soil. Five rows were made in each flat and the three rice varieties (′Cybonee, ‘Jupiter’, and ‘Taggart’) were planted in the center 3 rows and a row of red rice (Oryza sativa) was planted on either end of the flat. The flats were watered after planting. After application flats were placed in the greenhouse and lightly watered. […] The flats were moved to a greenhouse and watered and fertilized routinely. Studies were conducted using randomized complete block design with four replications. In both studies, visual percent red rice control and rice injury were recorded at 14, 21, and 28 days after treatment (DAT), using a scale of 0 (no control/injury) to 100 (complete plant death).

[3] = tested on: Rice (Oryza sativa) 'Jupiter'; conditions: PRE, direct-seeded dryland rice
Description: as §1

[4] = tested on: Rice (Oryza sativa) 'Taggart'; conditions: PRE, direct-seeded dryland rice
Description: as §1

red rice (Oryza sativa) [5] = experiment: Pre-emergent evaluation on dryland rice, red rice control; type: in vivo; conditions: for Percent red rice control: PRE, direct-seeded dryland rice
Description: as §1

yellow nutsedge = experiment: Direct seeded dryland rice test, pre-emergent (FIG. 2); type: in vivo; conditions: pre-emergent treatment at 25 g ai/ha

Structure (SMILES): CS(=O)(=O)c1ccc(C(=O)C2C(=O)CCCC2=O)c([N+](=O)[O-])c1 [Mesotrione, mesotrione]
- Percent red rice control (red rice (Oryza sativa) [1]; 14 DAT, 12.5 g ai/ha): 68 BC %
- Percent red rice control (red rice (Oryza sativa) [1]; 14 DAT, 25 g ai/ha): 70 ABC %
- Percent red rice control (red rice (Oryza sativa) [1]; 14 DAT, 37.5 g ai/ha): 78 AB %
- Percent red rice control (red rice (Oryza sativa) [1]; 14 DAT, 50 g ai/ha): 81 AB %
- Percent red rice control (red rice (Oryza sativa) [1]; 14 DAT, 62.5 g ai/ha): 81 AB %
- Percent red rice control (red rice (Oryza sativa) [1]; 14 DAT, 75 g ai/ha): 84 A %
- Percent red rice control (red rice (Oryza sativa) [1]; 14 DAT, 87.5 g ai/ha): 80 AB %
- Percent red rice control (red rice (Oryza sativa) [1]; 14 DAT, 100 g ai/ha): 84 A %
- Percent red rice control (red rice (Oryza sativa) [1]; 21 DAT, 12.5 g ai/ha): 91 A %
- Percent red rice control (red rice (Oryza sativa) [1]; 21 DAT, 25 g ai/ha): 97 A %
- Percent red rice control (red rice (Oryza sativa) [1]; 21 DAT, 37.5 g ai/ha): 98 A %
- Percent red rice control (red rice (Oryza sativa) [1]; 21 DAT, 50 g ai/ha): 97 A %
- Percent red rice control (red rice (Oryza sativa) [1]; 21 DAT, 62.5 g ai/ha): 97 A %
- Percent red rice control (red rice (Oryza sativa) [1]; 21 DAT, 75 g ai/ha): 98 A %
- Percent red rice control (red rice (Oryza sativa) [1]; 21 DAT, 87.5 g ai/ha): 98 A %
- Percent red rice control (red rice (Oryza sativa) [1]; 21 DAT, 100 g ai/ha): 98 A %
- Percent red rice control (red rice (Oryza sativa) [1]; 28 DAT, 12.5 g ai/ha): 93 A %
- Percent red rice control (red rice (Oryza sativa) [1]; 28 DAT, 25 g ai/ha): 97 A %
- Percent red rice control (red rice (Oryza sativa) [1]; 28 DAT, 37.5 g ai/ha): 100 A %
- Percent red rice control (red rice (Oryza sativa) [1]; 28 DAT, 50 g ai/ha): 99 A %
- Percent red rice control (red rice (Oryza sativa) [1]; 28 DAT, 62.5 g ai/ha): 99 A %
- Percent red rice control (red rice (Oryza sativa) [1]; 28 DAT, 75 g ai/ha): 100 A %
- Percent red rice control (red rice (Oryza sativa) [1]; 28 DAT, 87.5 g ai/ha): 98 A %
- Percent red rice control (red rice (Oryza sativa) [1]; 28 DAT, 100 g ai/ha): 100 A %
- Percent rice injury Cybonet ([2]; 14 DAT, 12.5 g ai/ha): 6 BCD %
- Percent rice injury Cybonet ([2]; 14 DAT, 25 g ai/ha): 1 D %
- Percent rice injury Cybonet ([2]; 14 DAT, 37.5 g ai/ha): 1 D %
- Percent rice injury Cybonet ([2]; 14 DAT, 50 g ai/ha): 1 D %
- Percent rice injury Cybonet ([2]; 14 DAT, 62.5 g ai/ha): 4 D %
- Percent rice injury Cybonet ([2]; 14 DAT, 75 g ai/ha): 5 CD %
- Percent rice injury Cybonet ([2]; 14 DAT, 87.5 g ai/ha): 11 BC %
- Percent rice injury Cybonet ([2]; 14 DAT, 100 g ai/ha): 12 B %
- Percent rice injury Cybonet ([2]; 21 DAT, 12.5 g ai/ha): 5 DE %
- Percent rice injury Cybonet ([2]; 21 DAT, 25 g ai/ha): 1 E %
- Percent rice injury Cybonet ([2]; 21 DAT, 37.5 g ai/ha): 1 E %
- Percent rice injury Cybonet ([2]; 21 DAT, 50 g ai/ha): 5 DE %
- Percent rice injury Cybonet ([2]; 21 DAT, 62.5 g ai/ha): 5 DE %
- Percent rice injury Cybonet ([2]; 21 DAT, 75 g ai/ha): 8 BCD %
- Percent rice injury Cybonet ([2]; 21 DAT, 87.5 g ai/ha): 12 BC %
- Percent rice injury Cybonet ([2]; 21 DAT, 100 g ai/ha): 13 B %
- Percent rice injury Cybonet ([2]; 28 DAT, 12.5 g ai/ha): 5 DE %
- Percent rice injury Cybonet ([2]; 28 DAT, 25 g ai/ha): 1 E %
- Percent rice injury Cybonet ([2]; 28 DAT, 37.5 g ai/ha): 1 E %
- Percent rice injury Cybonet ([2]; 28 DAT, 50 g ai/ha): 6 DE %
- Percent rice injury Cybonet ([2]; 28 DAT, 62.5 g ai/ha): 9 DE %
- Percent rice injury Cybonet ([2]; 28 DAT, 75 g ai/ha): 15 CD %
- Percent rice injury Cybonet ([2]; 28 DAT, 87.5 g ai/ha): 25 BC %
- Percent rice injury Cybonet ([2]; 28 DAT, 100 g ai/ha): 33 AB %
- Percent rice injury Jupiter ([3]; 14 DAT, 12.5 g ai/ha): 0 E %
- Percent rice injury Jupiter ([3]; 14 DAT, 25 g ai/ha): 0 E %
- Percent rice injury Jupiter ([3]; 14 DAT, 37.5 g ai/ha): 2 DE %
- Percent rice injury Jupiter ([3]; 14 DAT, 50 g ai/ha): 3 DE %
- Percent rice injury Jupiter ([3]; 14 DAT, 62.5 g ai/ha): 5 CD %
- Percent rice injury Jupiter ([3]; 14 DAT, 75 g ai/ha): 8 BC %
- Percent rice injury Jupiter ([3]; 14 DAT, 87.5 g ai/ha): 10 BC %
- Percent rice injury Jupiter ([3]; 14 DAT, 100 g ai/ha): 11 B %
- Percent rice injury Jupiter ([3]; 21 DAT, 12.5 g ai/ha): 0 E %
- Percent rice injury Jupiter ([3]; 21 DAT, 25 g ai/ha): 0 E %
- Percent rice injury Jupiter ([3]; 21 DAT, 37.5 g ai/ha): 2 DE %
- Percent rice injury Jupiter ([3]; 21 DAT, 50 g ai/ha): 6 CDS %
- Percent rice injury Jupiter ([3]; 21 DAT, 62.5 g ai/ha): 7 CD %
- Percent rice injury Jupiter ([3]; 21 DAT, 75 g ai/ha): 10 BC %
- Percent rice injury Jupiter ([3]; 21 DAT, 87.5 g ai/ha): 11 BC %
- Percent rice injury Jupiter ([3]; 21 DAT, 100 g ai/ha): 14 B %
- Percent rice injury Jupiter ([3]; 28 DAT, 12.5 g ai/ha): 0 D %
- Percent rice injury Jupiter ([3]; 28 DAT, 25 g ai/ha): 0 D %
- Percent rice injury Jupiter ([3]; 28 DAT, 37.5 g ai/ha): 1 D %
- Percent rice injury Jupiter ([3]; 28 DAT, 50 g ai/ha): 6 CD %
- Percent rice injury Jupiter ([3]; 28 DAT, 62.5 g ai/ha): 8 CD %
- Percent rice injury Jupiter ([3]; 28 DAT, 75 g ai/ha): 21 BC %
- Percent rice injury Jupiter ([3]; 28 DAT, 87.5 g ai/ha): 26 B %
- Percent rice injury Jupiter ([3]; 28 DAT, 100 g ai/ha): 56 A %
- Percent rice injury Taggart ([4]; 14 DAT, 12.5 g ai/ha): 0 E %
- Percent rice injury Taggart ([4]; 14 DAT, 25 g ai/ha): 0 E %
- Percent rice injury Taggart ([4]; 14 DAT, 37.5 g ai/ha): 1 E %
- Percent rice injury Taggart ([4]; 14 DAT, 50 g ai/ha): 2 DE %
- Percent rice injury Taggart ([4]; 14 DAT, 62.5 g ai/ha): 6 C %
- Percent rice injury Taggart ([4]; 14 DAT, 75 g ai/ha): 5 CD %
- Percent rice injury Taggart ([4]; 14 DAT, 87.5 g ai/ha): 9 BC %
- Percent rice injury Taggart ([4]; 14 DAT, 100 g ai/ha): 11 B %
- Percent rice injury Taggart ([4]; 21 DAT, 12.5 g ai/ha): 0 C %
- Percent rice injury Taggart ([4]; 21 DAT, 25 g ai/ha): 0 C %
- Percent rice injury Taggart ([4]; 21 DAT, 37.5 g ai/ha): 1 BC %
- Percent rice injury Taggart ([4]; 21 DAT, 50 g ai/ha): 5 BC %
- Percent rice injury Taggart ([4]; 21 DAT, 62.5 g ai/ha): 9 BC %
- Percent rice injury Taggart ([4]; 21 DAT, 75 g ai/ha): 10 BC %
- Percent rice injury Taggart ([4]; 21 DAT, 87.5 g ai/ha): 11 BC %
- Percent rice injury Taggart ([4]; 21 DAT, 100 g ai/ha): 13 B %
- Percent rice injury Taggart ([4]; 28 DAT, 12.5 g ai/ha): 0 D %
- Percent rice injury Taggart ([4]; 28 DAT, 25 g ai/ha): 0 D %
- Percent rice injury Taggart ([4]; 28 DAT, 37.5 g ai/ha): 1 D %
- Percent rice injury Taggart ([4]; 28 DAT, 50 g ai/ha): 6 CD %
- Percent rice injury Taggart ([4]; 28 DAT, 62.5 g ai/ha): 12 BCD %
- Percent rice injury Taggart ([4]; 28 DAT, 75 g ai/ha): 23 BC %
- Percent rice injury Taggart ([4]; 28 DAT, 87.5 g ai/ha): 29 B %
- Percent rice injury Taggart ([4]; 28 DAT, 100 g ai/ha): 50 A %
- Percent red rice control (red rice (Oryza sativa) [5]; 14 DAT, 12.5 g ai/ha): 33 D %
- Percent red rice control (red rice (Oryza sativa) [5]; 14 DAT, 25 g ai/ha): 70 B %
- Percent red rice control (red rice (Oryza sativa) [5]; 14 DAT, 37.5 g ai/ha): 74 B %
- Percent red rice control (red rice (Oryza sativa) [5]; 14 DAT, 50 g ai/ha): 79 A %
- Percent red rice control (red rice (Oryza sativa) [5]; 14 DAT, 62.5 g ai/ha): 80 A %
- Percent red rice control (red rice (Oryza sativa) [5]; 14 DAT, 75 g ai/ha): 80 A %
- Percent red rice control (red rice (Oryza sativa) [5]; 14 DAT, 87.5 g ai/ha): 80 A %
- Percent red rice control (red rice (Oryza sativa) [5]; 14 DAT, 100 g ai/ha): 80 A %
- Percent red rice control (red rice (Oryza sativa) [5]; 21 DAT, 12.5 g ai/ha): 60 C %
- Percent red rice control (red rice (Oryza sativa) [5]; 21 DAT, 25 g ai/ha): 81 B %
- Percent red rice control (red rice (Oryza sativa) [5]; 21 DAT, 37.5 g ai/ha): 84 AB %
- Percent red rice control (red rice (Oryza sativa) [5]; 21 DAT, 50 g ai/ha): 86 AB %
- Percent red rice control (red rice (Oryza sativa) [5]; 21 DAT, 62.5 g ai/ha): 89 AB %
- Percent red rice control (red rice (Oryza sativa) [5]; 21 DAT, 75 g ai/ha): 90 A %
- Percent red rice control (red rice (Oryza sativa) [5]; 21 DAT, 87.5 g ai/ha): 90 A %
- Percent red rice control (red rice (Oryza sativa) [5]; 21 DAT, 100 g ai/ha): 90 A %
- Percent red rice control (red rice (Oryza sativa) [5]; 28 DAT, 12.5 g ai/ha): 62 B %
- Percent red rice control (red rice (Oryza sativa) [5]; 28 DAT, 25 g ai/ha): 89 A %
- Percent red rice control (red rice (Oryza sativa) [5]; 28 DAT, 37.5 g ai/ha): 88 A %
- Percent red rice control (red rice (Oryza sativa) [5]; 28 DAT, 50 g ai/ha): 91 A %
- Percent red rice control (red rice (Oryza sativa) [5]; 28 DAT, 62.5 g ai/ha): 92 A %
- Percent red rice control (red rice (Oryza sativa) [5]; 28 DAT, 75 g ai/ha): 92 A %
- Percent red rice control (red rice (Oryza sativa) [5]; 28 DAT, 87.5 g ai/ha): 95 A %
- Percent red rice control (red rice (Oryza sativa) [5]; 28 DAT, 100 g ai/ha): 93 A %
- red rice control (words, FIG. 3) (red rice (Oryza sativa) [5]; pre-emergent treatment at 25 g ai/ha, direct seeded dryland rice test): controlled
- yellow nutsedge control (words, FIG. 2) (yellow nutsedge): controlled
